# Test results taken from paper PMC11500415, “Chemical inhibition of stomatal differentiation by perturbation of the master-regulatory bHLH heterodimer via an ACT-Like domain” (Nature Communications, 2024).
# Several values for one entry are separate records, joined by “and”; a condition that tells them apart may be missing. Identical values can stand only once. Like-named read-outs stand apart in the source and are kept apart here.
# Columns and labels:
# [1] = molecular target: T1, MUTE (Arabidopsis thaliana, UniProt Q9M8K6); assay: BLI direct binding; set-up: species or system A. thaliana
# T1 construct: MUTE (1-202); made in house; host or cells: E. coli BL21
# T1 sequence (Q9M8K6 whole entry): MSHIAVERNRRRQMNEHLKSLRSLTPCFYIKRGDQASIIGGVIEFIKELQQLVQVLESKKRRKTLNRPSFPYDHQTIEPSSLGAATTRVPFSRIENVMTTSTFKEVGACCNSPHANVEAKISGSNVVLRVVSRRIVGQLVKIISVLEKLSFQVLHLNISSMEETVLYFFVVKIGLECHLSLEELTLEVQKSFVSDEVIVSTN
# Text: A. thaliana SCRM (1-494), ΔNSPCH (98-364), MUTE (1-202), ΔNFAMA (190-414), MUTEΔC (1-114), MUTER133A_R134A, MUTEE162A_E163A, MUTER133A_R134A_E162A_E163A, SCRM-ACTL (405-494), MUTE-ACTL (114-202), SPCH-ACTL (285-364), FAMA-ACTL (306-414), MUTE_ACTLR133A_R134A, MUTE_ACTLE162A_E163A, MUTE_ACTLR133A_R134A_E162A_E163A were cloned into pGEX-4T-1 vector with an N-terminal GST tag and a thrombin cleavage sequence. For protein expression, the constructs were transformed into E. coli strain BL21. For each transformant, a single colony was selected and incubated in 10 ml LB liquid media. The overnight-incubated E. coli suspensions were transferred to 1 L LB medium and incubated at 37 °C for around 2 h until the OD600 reached 0.4–0.6. The isopropyl β-D-1-thiogalactopyranoside ([…] of final concentration) was added to the cultures and the strains were incubated at 22 °C for a further 18 h. GST-fused proteins were purified using glutathione agarose resin. The soluble portion of the cell lysate was loaded onto a GST-Sepharose column. Nonspecifically bound proteins were removed by washing the column with 20 mM Tris pH 8.0, 200 mM NaCl. The bound GST-fused protein was eluted with 10 mm glutathione and 20 mM Tris pH 8.0, 200 mM NaCl. The GST-fused proteins were exchanged with phosphate-buffered saline buffer, and then the solution was treated with 50 μg of thrombin for 10–12 h at 16 ^οC. The GST portion of the protein was cleaved during thrombin digestion, and then the whole solution was reloaded onto the glutathione S-transferase column to obtain pure protein. The purified proteins were further purified by gel filtration on a Superdex-200 (GE) column using fast protein liquid chromatography and phosphate buffer (pH 7.2) as the eluent. The purity of the protein was checked by SDS-PAGE. For detailed lists of oligo DNA and plasmid information, see Supplementary Tables 5, 6, respectively.
# The binding affinities of SCRM to MUTE / MUTER133A_R134A / MUTEE162A_E163A / MUTER133A_R134A_E162A_E163A in presence and absence of Stomidazolone (3) and its analogues (AYSJ1059 (5) and AYSJ1061 (6)), and Stomidazolone / AYSJ1059 / AYSJ1061 interactions with GST-tagged SCRM, MUTE, SPCH, FAMA, MUTE ΔACTL, MUTE_ACTL, SCRM_ACTL, SPCH_ACTL and FAMA_ACTL, MUTER133A_134A, MUTEE162A_E163A, MUTER133A_R134A_E162A_E163A were measured using the Octet Red96 system (ForteBio, Pall Life Sciences) following the manufacturer’s protocols. The optical probes coated with anti-GST were first loaded with 500 nM GST tagged proteins before kinetic binding analyses. The experiment was performed in 96-well plates maintained at 30 °C. Each well was loaded with 200 μL reaction volume for the experiment. The binding buffer used in these experiments contained 1× PBS supplemented with 2% DMSO, 0.02% Tween20. […] There was no binding of the analytes to the unloaded probes as shown by the control wells. Binding kinetics to all seven concentrations of the analytes were measured simultaneously using default parameters on the instrument. The data were analyzed using the Octet data analysis software. The association and dissociation curves were fit with the 1:1 homogeneous ligand model. The kobs (observed rate constant) values were used to calculate Kd, with steady-state analysis of the direct binding. See Supplementary Table 3 for details.
# [2] = molecular target: T2, MUTE_ACTLR133A_R134A_E162A_E163A (Arabidopsis thaliana, UniProt Q9M8K6, E162A/E163A/R133A/R134A); assay: BLI direct binding; set-up: species or system A. thaliana; settings: for Response: MUTE_R133A_R134A_E162A_E163A on Anti-GST sensor, rep-1, rep-2
# T2 construct: MUTE-ACTL (114-202); made in house; host or cells: E. coli BL21
# T2 sequence (Q9M8K6 114-202 R133A/R134A/E162A/E163A): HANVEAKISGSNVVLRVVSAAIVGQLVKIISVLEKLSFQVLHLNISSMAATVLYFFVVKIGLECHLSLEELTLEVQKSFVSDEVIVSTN
compound,measurement,setting,value
O=C1C(c2ccccc2)=NC(NS(=O)(=O)c2ccccc2)(c2ccccc2)N1S(=O)(=O)c1ccccc1 (stereo not shown) [Stomidazolone],Kd,"[1]; BLI steady state, MUTE, read-out: KD (SS)",0.0089 ± 0.0012 mM
same,kdis,"[1]; MUTE loaded on Anti-GST sensor, fit per sensor, Stomid Conc. 200-3.12, rep-1, rep-2",0.0392 s⁻¹ and 0.0391 s⁻¹
same,Kd,"[1]; MUTE loaded on Anti-GST sensor, fit per sensor, Stomid Conc. (mM) 200-3.12, rep-1, rep-2, read-out: KD",0.00896 mM and 0.00929 mM and 0.00909 mM and 0.0092 mM and 0.00905 mM and 0.00911 mM and 0.0091 mM and 0.00897 mM and 0.00907 mM and 0.00902 mM and 0.00906 mM
same,RMax,"[1]; MUTE, Conc. 3.12, rep-1, rep-2",0.125 and 0.165
same,Req/Rmax(%),"[1]; MUTE, Conc. 3.12, rep-1, rep-2",100%
same,Response,"[1]; MUTE, Conc. 3.12, rep-1, rep-2",0.1223 and 0.1634
same,RMax,"[1]; MUTE, Conc. 6.25, rep-1, rep-2",0.275 and 0.215
same,Req/Rmax(%),"[1]; MUTE, Conc. 6.25, rep-1, rep-2",97% and 100%
same,Response,"[1]; MUTE, Conc. 6.25, rep-1, rep-2",0.2732 and 0.2105
same,RMax,"[1]; MUTE, Conc. 12.5, rep-1, rep-2",0.425 and 0.395
same,Response,"[1]; MUTE, Conc. 12.5, rep-1, rep-2",0.4108 and 0.3912
same,RMax,"[1]; MUTE, Conc. 25, rep-1, rep-2",0.525 and 0.47
same,Response,"[1]; MUTE, Conc. 25, rep-1, rep-2",0.5211 and 0.4645
same,RMax,"[1]; MUTE, Conc. 50, rep-1, rep-2",0.55 and 0.585
same,Req/Rmax(%),"[1]; MUTE, Conc. 50, rep-1, rep-2",89%
same,Response,"[1]; MUTE, Conc. 50, rep-1, rep-2",0.5313 and 0.5832
same,RMax,"[1]; MUTE, Conc. 100, rep-1, rep-2",0.605 and 0.635
same,Response,"[1]; MUTE, Conc. 100, rep-1, rep-2",0.5932 and 0.6302
same,RMax,"[1]; MUTE, Conc. 200, rep-1, rep-2",0.615 and 0.645
same,Req/Rmax(%),"[1]; MUTE, Conc. 200, rep-1, rep-2",98%
same,Response,"[1]; MUTE, Conc. 200, rep-1, rep-2",0.606 and 0.634
same,koff,"[1]; read-out: kdis(1/s), MUTE loaded on Anti-GST sensor, fit per sensor, Stomid Conc. 200-3.12, rep-1, rep-2",0.0393 s⁻¹
same,kon,"[1]; read-out: kon(1/Ms), MUTE loaded on Anti-GST sensor, fit per sensor, Stomid Conc. 200-3.12, rep-1, rep-2",4380 M⁻¹ s⁻¹
same,KD (SS),"[2]; BLI steady state, MUTE_ACTL R133A_R134A_E162A_E163A, ND = no binding was detected",no binding was detected
same,Response,[2]; Stomid 3.12 µM,0.021 and 0.041
same,Response,[2]; Stomid 6.25 µM,0.061 and 0.035
same,Response,[2]; Stomid 12.5 µM,0.063 and 0.047
same,Response,[2]; Stomid 25 µM,0.078 and 0.041
same,Response,[2]; Stomid 50 µM,0.062 and 0.082
same,Response,[2]; Stomid 100 µM,0.075 and 0.108
same,Response,[2]; Stomid 200 µM,0.104 and 0.136
